Measurements from PubChem BioAssay AID284 (DTP/NCI, 2004).
Several values for one entry are separate records, joined by “and”; a condition that tells them apart may be missing. Identical values can stand only once. Inconclusive results and toxic doses are left out.

Test system: BDF1 mice, L1210/MTX-resistant leukemia ip, survival T/C
Assay: NCI In Vivo Anticancer Drug Screen. Data for tumor model L1210 Leukemia resistant to Methotrexate; NSC 740 (intraperitoneal) in B6D2F1 (BDF1) mice
Conditions: endpoint: mean survival time, higher = longer survival
Experimental: The antitumor activity of compounds was measured in mice bearing transplantable tumors. Survival or tumor size were measured and the results are expressed as the measurement made in the treated group (T) divided by the measurement made in the vehicle treated control group (C). The tumor model used in this assay is L1210 Leukemia resistant to Methotrexate; NSC 740 (intraperitoneal) in B6D2F1 (BDF1) mice

[1] = dose: 1.6 mg/kg/injection, schedule: Q01DX Z (ip), vehicle: methylcellulose (MC)
[2] = dose: 3.2 mg/kg/injection, schedule: Q01DX Z (ip), vehicle: methylcellulose (MC)
[3] = dose: 6.3 mg/kg/injection, schedule: Q01DX Z (ip), vehicle: methylcellulose (MC)
[4] = dose: 20.0 mg/kg/injection, schedule: Q01DX Z (ip), vehicle: carboxymethylcellulose (CMC)
[5] = dose: 25.0 mg/kg/injection, schedule: Q01DX010 (ip), vehicle: saline
[6] = dose: 16.0 mg/kg/injection, schedule: Q01DX010 (ip), vehicle: saline
[7] = dose: 32.0 mg/kg/injection, schedule: Q01DX010 (ip), vehicle: saline
[8] = dose: 64.0 mg/kg/injection, schedule: Q01DX010 (ip), vehicle: saline

CCN(CC)CCNc1ccc(C)c2sc3ccccc3c(=O)c12
T/C [1]: 89 % of control and 93 % of control
T/C [2]: 93 % of control
T/C [3]: 93 % of control
T/C [4]: 112 % of control
T/C [5]: 159 % of control
T/C (dose: 40.0 mg/kg/injection, schedule: Q01DX Z (ip), vehicle: carboxymethylcellulose (CMC)): 106 % of control
T/C (dose: 50.0 mg/kg/injection, schedule: Q01DX010 (ip), vehicle: saline): 124 % of control
T/C (dose: 80.0 mg/kg/injection, schedule: Q01DX Z (ip), vehicle: carboxymethylcellulose (CMC)): 113 % of control
T/C (dose: 100.0 mg/kg/injection, schedule: Q01DX010 (ip), vehicle: saline): 213 % of control
T/C (dose: 200.0 mg/kg/injection, schedule: Q01DX010 (ip), vehicle: saline): 86 % of control

O=C(CCBr)N1CCN(C(=O)CCBr)CC1
T/C [1]: 86 % of control
T/C [2]: 90 % of control
T/C [3]: 100 % of control

CN(Cc1cnc2nc(N)nc(N)c2n1)c1ccc(C(=O)N[C@@H](CCC(=O)O)C(=O)O)cc1
T/C (dose: 0.19 mg/kg/injection, schedule: Q01DX010 (ip), vehicle: other): 95 % of control
T/C (dose: 0.38 mg/kg/injection, schedule: Q01DX010 (ip), vehicle: other): 100 % of control
T/C (dose: 0.75 mg/kg/injection, schedule: Q01DX010 (ip), vehicle: other): 99 % of control
T/C (dose: 0.75 mg/kg/injection, schedule: Q01DX Z (ip), vehicle: alkali diluted with saline): 120 % of control and 92 % of control
T/C (dose: 0.75 mg/kg/injection, schedule: Q01DX Z (ip), vehicle: saline): 95 % of control and 106 % of control
T/C (dose: 1.5 mg/kg/injection, schedule: Q01DX010 (ip), vehicle: other): 100 % of control
T/C (dose: 1.5 mg/kg/injection, schedule: Q01DX Z (ip), vehicle: alkali diluted with saline): 117 % of control and 92 % of control
T/C (dose: 1.5 mg/kg/injection, schedule: Q01DX Z (ip), vehicle: saline): 94 % of control and 100 % of control
T/C (dose: 3.0 mg/kg/injection, schedule: Q01DX Z (ip), vehicle: alkali diluted with saline): 97 % of control
T/C (dose: 3.0 mg/kg/injection, schedule: Q01DX Z (ip), vehicle: saline): 87 % of control and 99 % of control
T/C (dose: 4.0 mg/kg/injection, schedule: Q01DX Z (ip), vehicle: other): 91 % of control and 95 % of control

O=c1[nH]cc(F)c(=O)[nH]1
T/C (dose: 25.0 mg/kg/injection, schedule: Q01DX Z (ip), vehicle: saline): 92 % of control and 101 % of control
T/C (dose: 50.0 mg/kg/injection, schedule: Q01DX Z (ip), vehicle: saline): 87 % of control and 93 % of control and 98 % of control

CCCCn1cnc2c(=S)nc[nH]c21
T/C [6]: 114 % of control
T/C [7]: 97 % of control
T/C [8]: 105 % of control

C[C@]12CCC(=O)C=C1CC[C@@H]1[C@@H]2C(=O)C[C@@]2(C)[C@H]1CC[C@]2(O)C(=O)CO
T/C (dose: 63.0 mg/kg/injection, schedule: Q01DX Z (sc), vehicle: steriod suspending solution): 101 % of control and 106 % of control
T/C (dose: 100.0 mg/kg/injection, schedule: Q01DX Z (sc), vehicle: steriod suspending solution): 89 % of control
T/C (dose: 125.0 mg/kg/injection, schedule: Q01DX Z (sc), vehicle: steriod suspending solution): 98 % of control and 102 % of control

Nc1nc(N)c2nc(CNc3ccc(C(=O)NC(CCC(=O)O)C(=O)O)cc3)cnc2n1 (stereo unspecified)
T/C (dose: 0.05 mg/kg/injection, schedule: Q01DX010 (ip), vehicle: other): 90 % of control
T/C (dose: 0.1 mg/kg/injection, schedule: Q01DX010 (ip), vehicle: other): 102 % of control and 103 % of control
T/C (dose: 0.2 mg/kg/injection, schedule: Q01DX010 (ip), vehicle: other): 92 % of control and 104 % of control
T/C (dose: 0.4 mg/kg/injection, schedule: Q01DX010 (ip), vehicle: other): 89 % of control

Cn1c(O)c(N=NC(N)=S)c2ccccc21
T/C (dose: 50.0 mg/kg/injection, schedule: Q01DX Z (ip), vehicle: carboxymethylcellulose (CMC)): 96 % of control
T/C (dose: 100.0 mg/kg/injection, schedule: Q01DX Z (ip), vehicle: carboxymethylcellulose (CMC)): 86 % of control

CCN(CC)c1ccc2cc3ccc(=[N+](CC)CC)cc-3oc2c1
T/C (dose: 1.0 mg/kg/injection, schedule: Q01DX010 (ip), vehicle: saline): 100 % of control
T/C (dose: 2.0 mg/kg/injection, schedule: Q01DX010 (ip), vehicle: saline): 91 % of control
T/C (dose: 4.0 mg/kg/injection, schedule: Q01DX010 (ip), vehicle: saline): 98 % of control

OCC1OC(n2cnc3c(Cl)ncnc32)C(O)C1O (stereo unspecified)
T/C (dose: 62.5 mg/kg/injection, schedule: Q01DX010 (ip), vehicle: saline): 87 % of control and 90 % of control
T/C (dose: 125.0 mg/kg/injection, schedule: Q01DX010 (ip), vehicle: saline): 95 % of control and 98 % of control
T/C (dose: 250.0 mg/kg/injection, schedule: Q01DX010 (ip), vehicle: saline): 95 % of control and 100 % of control
T/C (dose: 500.0 mg/kg/injection, schedule: Q01DX010 (ip), vehicle: saline): 98 % of control

OCC1OC(n2cnc3c(=S)nc[nH]c32)C(O)C1O (stereo unspecified)
T/C (dose: 20.0 mg/kg/injection, schedule: Q01DX010 (ip), vehicle: saline): 101 % of control and 102 % of control
T/C (dose: 40.0 mg/kg/injection, schedule: Q01DX010 (ip), vehicle: saline): 91 % of control and 101 % of control
T/C (dose: 80.0 mg/kg/injection, schedule: Q01DX010 (ip), vehicle: saline): 98 % of control
T/C (dose: 160.0 mg/kg/injection, schedule: Q01DX010 (ip), vehicle: saline): 88 % of control and 93 % of control

N=[N+]=CC(=O)OCC(N)C(=O)O (stereo unspecified)
T/C (dose: 1.25 mg/kg/injection, schedule: Q01DX Z (ip), vehicle: saline): 116 % of control and 121 % of control
T/C (dose: 2.5 mg/kg/injection, schedule: Q01DX Z (ip), vehicle: saline): 112 % of control
T/C (dose: 10.0 mg/kg/injection, schedule: Q01DX Z (ip), vehicle: saline): 117 % of control and 104 % of control
T/C (dose: 40.0 mg/kg/injection, schedule: Q01DX Z (ip), vehicle: saline): 101 % of control
T/C (dose: 80.0 mg/kg/injection, schedule: Q01DX Z (ip), vehicle: saline): 93 % of control

C[C@]12C=CC(=O)C=C1CC[C@@H]1[C@@H]2C(=O)C[C@@]2(C)[C@H]1CC[C@]2(O)C(=O)CO
T/C (dose: 25.0 mg/kg/injection, schedule: Q01DX010 (sc), vehicle: steriod suspending solution): 90 % of control

O=C(Nc1ccc(C2=NCCN2)cc1)c1cccc(C(=O)Nc2ccc(C3=NCCN3)cc2)c1
T/C (dose: 8.0 mg/kg/injection, schedule: Q01DX010 (ip), vehicle: saline): 177 % of control and 209 % of control
T/C (dose: 12.5 mg/kg/injection, schedule: Q01DX Z (ip), vehicle: methylcellulose (MC)): 122 % of control
T/C [6]: 211 % of control and 247 % of control
T/C [7]: 225 % of control and 256 % of control
T/C (dose: 50.0 mg/kg/injection, schedule: Q01DX Z (ip), vehicle: methylcellulose (MC)): 95 % of control
T/C [8]: 235 % of control and 250 % of control

CC/C(=C(/CC)c1ccc(O)cc1)c1ccc(O)cc1
T/C (dose: 12.5 mg/kg/injection, schedule: Q01DX010 (ip), vehicle: saline): 94 % of control
T/C (dose: 12.5 mg/kg/injection, schedule: Q01DX010 (sc), vehicle: steriod suspending solution): 92 % of control
T/C [5]: 94 % of control
T/C (dose: 50.0 mg/kg/injection, schedule: Q01DX010 (sc), vehicle: steriod suspending solution): 89 % of control
T/C (dose: 100.0 mg/kg/injection, schedule: Q01DX010 (sc), vehicle: steriod suspending solution): 86 % of control and 87 % of control

S=P(N1CCOCC1)(N1CC1)N1CC1
T/C (dose: 2.0 mg/kg/injection, schedule: Q01DX Z (ip), vehicle: carboxymethylcellulose (CMC)): 92 % of control
T/C (dose: 6.0 mg/kg/injection, schedule: Q01DX Z (ip), vehicle: carboxymethylcellulose (CMC)): 93 % of control
T/C (dose: 8.0 mg/kg/injection, schedule: Q01DX Z (ip), vehicle: carboxymethylcellulose (CMC)): 92 % of control
T/C (dose: 10.0 mg/kg/injection, schedule: Q01DX Z (ip), vehicle: carboxymethylcellulose (CMC)): 96 % of control
T/C [4]: 95 % of control

CNC=O
T/C (dose: 125.0 mg/kg/injection, schedule: Q01DX Z (ip), vehicle: saline): 117 % of control
T/C (dose: 150.0 mg/kg/injection, schedule: Q01DX Z (ip), vehicle: saline): 104 % of control
T/C (dose: 250.0 mg/kg/injection, schedule: Q01DX Z (ip), vehicle: saline): 111 % of control
T/C (dose: 300.0 mg/kg/injection, schedule: Q01DX Z (ip), vehicle: saline): 156 % of control
T/C (dose: 500.0 mg/kg/injection, schedule: Q01DX Z (ip), vehicle: saline): 112 % of control
